From US10301294B2, “Compounds for the treatment of tuberculosis” (priority 2013, dated 2019)
pIC50: −log10 of the molar value. Where two headings read alike, the source gives them in different places.

Legend:
[1] = tested on: carbon-starved M. tuberculosis H37Rv; assay: microbe, parasite or virus in culture; type: cell-based
[2] = tested on: TB; assay: MIC of control anti-tuberculosis antibiotics; type: cell-based, M. tuberculosis; details: Mycobacterium tuberculosis
[3] = tested on: replicating M. tuberculosis H37Rv; assay: microbe, parasite or virus in culture; type: cell-based; details: for Against Replicating Mtb, % @ 125: at 125 uM; for Against Replicating Mtb, % @ 62: at 62 uM
[4] = tested on: carbon-starved M. tuberculosis H37Rv; assay: Non-replicating IC90 determination by luciferase (carbon-starved cells); type: cell-based
[5] = tested on: replicating M. tuberculosis H37Rv; type: cell-based; details: FIG. 1A; read-out: IC90 against replicating, logarithmically growing bacteria measured by OD600 (converted)
[6] = tested on: replicating M. tuberculosis H37Rv; assay: microbe, parasite or virus in culture; type: cell-based; details: Mycobacterium tuberculosis, H37RV, three independent experiments in triplicate, read-out: TB Growth Inhibition Activity, IC90 Replicating_logarithmic (converted)
[7] = Cytotoxicity against Hek 293; type: cell-based; details: human, HEK293 cells, 26.0 uM highest concentration measured
[8] = Cytotoxicity against HepG2; type: cell-based; details: human, HepG2 cells, 26.0 uM highest concentration measured
[9] = Cytotoxicity against HeLa; type: cell-based; details: human, HeLa cells, 26.0 uM highest concentration measured
[10] = Mycobacterium tuberculosis, H37RV, read-out: Against carbon starving non-replicating Mtb IC90
[11] = Mycobacterium tuberculosis, H37RV, read-out: Against Replicating Mtb IC90
[12] = Mycobacterium tuberculosis, H37RV, non-replicating carbon-starved Mtb, luciferase, three independent experiments in triplicate, read-out: TB Growth Inhibition Activity, IC90 Non-replicating_luciferase

SMILES | IC90 [4, 12] [µM] | IC90 [6] [µM] | pIC50 [7] | pIC50 [8] | pIC50 [9] | also measured
[O-][n+]1ccccc1CSc1nnc(-c2ccccc2)o1 [drawing 263] |  |  |  |  |  | Against carbon starving non-replicating Mtb IC90 (uM) [1]: None
[N-]=[N+]=NCCOCCNC(=O)CCCOc1ccc(C[S+]([O-])c2nnc(-c3ccc(Cl)cc3)o2)nc1 (stereo not drawn) [drawing 278] |  |  |  |  |  | Against carbon starving non-replicating Mtb, % @ 8 [1]: 97% @ 8
O=S(=O)(Cc1ccccc1)c1nnc(-c2ccccc2)o1 [drawing 268] |  |  |  |  |  | IC90 [1, 10]: 62 µM
CO[C@H]1/C=C/O[C@@]2(C)Oc3c(C)c(O)c4c(O)c(c(/C=N/N5CCN(C)CC5)c(O)c4c3C2=O)NC(=O)/C(C)=C\C=C\[C@H](C)[C@H](O)[C@@H](C)[C@@H](O)[C@@H](C)[C@H](OC(C)=O)[C@@H]1C [rifampin] |  |  |  |  |  | MIC [2]: 0.01 µg/mL
COC(=O)CCCOc1ccc(CSc2nnc(-c3ccc(Cl)cc3)o2)nc1 [drawing 276] |  |  |  |  |  | IC90 [3, 11]: 31 µM; Against carbon starving non-replicating Mtb, % @ 8 [1]: 99% @ 8
Brc1ccc(-c2nnc(SCc3ccccn3)o2)cc1 [drawing 266] |  |  |  |  |  | IC90 [1, 10]: < 8 µM
[O-][S+](Cc1ccccn1)c1nnc(-c2ccc(Cl)cc2)o1 (stereo not drawn) [drawing 264] |  |  |  |  |  | IC90 [1, 10]: 10 µM
c1ccc(-c2nnc(SC3CCCCC3)o2)cc1 [drawing 262] |  |  |  |  |  | IC90 [1, 10]: 31 µM
c1ccc(-c2nnc(SCc3ccccn3)o2)cc1 [drawing 261] |  |  |  |  |  | Against Replicating Mtb, % @ 125 ([3]; […]): 99% @ 125; IC90 [1, 10]: 4 µM
COc1cccc(-c2nnc(SCc3ccccn3)o2)c1 [drawing 274] |  |  |  |  |  | Against Replicating Mtb, % @ 62 ([3]; […]): 99% @ 62; Against carbon starving non-replicating Mtb, % @ 16 ([1]; […], at 16 uM): 99% @ 16
Fc1ccc(-c2nnc(SCc3ccccn3)o2)cc1 [drawing 269] |  |  |  |  |  | Against Replicating Mtb, % @ 16 ([3]; […], at 16 uM): 98.5% @ 16; Against carbon starving non-replicating Mtb, % @ 4 [1]: 99% @ 4
Clc1ccc(-c2nnc(SCc3cn(-c4ccccc4)nn3)o2)cc1 |  |  |  |  |  | IC90 ([4]; FIG. 1C, read-out: IC90 for non-replicating starved cells by luciferase assay): > 62 µM; IC90 [5]: > 62 µM; IC90 ([3]; FIG. 1B, read-out: IC90 against replicating, logarithmically growing bacteria measured by CFU/mL (converted)): > 62 µM; IC90 ([1]; FIG. 1D, read-out: IC90 against non-replicating, starved cells by CFU/mL): 1 µM
NNC(=O)c1ccncc1 [INH, isoniazid] |  |  |  |  |  | MIC [2]: 0.1 µg/mL
c1ccc(-c2nnc(SCCC3OCCCO3)o2)cc1 [drawing 258] |  |  |  |  |  | IC90 [1, 10]: 10 µM
CN(C)CCSc1nnc(-c2ccccc2)o1 | 16 | 500 | < 4.59 | < 4.59 | < 4.59 | 
[O-][S+](Cc1cn(Cc2ccccc2)nn1)c1nnc(-c2ccc(Cl)cc2)o1 (stereo not drawn) [drawing 272] |  |  |  |  |  | Against Replicating Mtb, % @ 62 ([3]; […]): 100% @ 62; Against carbon starving non-replicating Mtb, % @ 31 ([1]; […], at 31 uM): 100% @ 31
Fc1ccccc1-c1nnc(SCc2ccccc2)o1 | 2 | 125 | < 4.59 | < 4.59 | < 4.59 | 
c1ccc(-c2nnc(SCc3cccnc3)o2)cc1 [drawing 143] | 8 | 125 | < 4.59 | < 4.59 | < 4.59 | 
[O-][S+](Cc1ccccc1)c1nnc(-c2ccccc2)o1 (stereo not drawn) [drawing 267] |  |  |  |  |  | Against Replicating Mtb, % @ 31 ([3]; […], at 31 uM): 100% @ 31; IC90 [1, 10]: 4 µM
O=S(=O)(Cc1ccccc1)c1nnc(-c2ccccc2)o1 [drawing 80] | 8 | 125 | < 4.59 | < 4.59 | < 4.59 | 
CS(=O)(=O)c1ccccc1-c1nnc(SCc2ccccc2)o1 | 62 | 500 | < 4.59 | < 4.59 | < 4.59 | 
c1ccc(CSc2nnc(-c3ccccc3)o2)cc1 | 8 | 62 | < 4.59 | < 4.59 | < 4.59 | 
Fc1ccc(CSc2nnc(-c3ccccc3)o2)cc1 [drawing 259] |  |  |  |  |  | IC90 [1, 10]: 62 µM

SMILES | IC90 [4, 12] [µM] | IC90 [6] [µM] | pIC50 [7] | pIC50 [8] | pIC50 [9] | also measured
c1ccc(-n2cc(CSc3nnc(C4CCC4)o3)nn2)cc1 | 2 | 62 | < 4.59 | < 4.59 | < 4.59 | 
Fc1ccc(Cn2cc(CSc3nnc(C4CCCC4)o3)nn2)cc1 | 31 | > 62 | < 4.59 | < 4.59 | < 4.59 | 
FC(F)(F)c1ccccc1-c1nnc(SCc2ccccc2)o1 | 62 | 500 | < 4.59 | < 4.59 | < 4.59 | 
COCCSc1nnc(-c2ccccc2)o1 [drawing 148] | 3 | 125 | < 4.59 | < 4.59 | < 4.59 | 
[N-]=[N+]=NCCOCCNC(=O)CCCOc1ccc(CSc2nnc(-c3ccc(Cl)cc3)o2)nc1 [drawing 277] |  |  |  |  |  | Against carbon starving non-replicating Mtb, % @ 8 [1]: 98% @ 8
Fc1ccc(-c2nnc(SCc3cn(Cc4ccccc4)nn3)o2)cc1 | 2 | > 62 | < 4.59 | < 4.59 | < 4.59 | 
c1ccc(-c2nnc(SCc3ccccn3)o2)cc1 [drawing 142] | 3 | 100 | < 4.59 | < 4.59 | < 4.59 | 
c1ccc(CSc2nnc(-c3ccccn3)o2)cc1 | 4 | 125 | < 4.59 | < 4.59 | < 4.59 | 
COCCSc1nnc(-c2ccccc2)o1 [drawing 260] |  |  |  |  |  | IC90 [1, 10]: 4 µM
c1ccc(CSc2nnc(-c3cscn3)o2)cc1 | 4 | 125 | < 4.59 | < 4.59 | < 4.59 | 
c1ccc(Cn2cc(CSc3nnc(C4CCC4)o3)nn2)cc1 | 8 | > 62 | < 4.59 | < 4.59 | < 4.59 | 
FC(F)(F)Oc1cccc(-c2nnc(SCc3ccccc3)o2)c1 | 31 | 250 | < 4.59 | < 4.59 | < 4.59 | 
c1ccc(-n2cc(CSc3nnc(C4CCCC4)o3)nn2)cc1 | 4 | 62 | < 4.59 | < 4.59 | < 4.59 | 
Fc1cccc(-c2nnc(SCc3ccccn3)o2)c1 [drawing 270] |  |  |  |  |  | IC90 [3, 11]: 31 µM; IC90 [1, 10]: < 8 µM
Clc1ccc(-c2nnc(SCc3cn(Cc4ccccc4)nn3)o2)cc1 [drawing 273] |  |  |  |  |  | Against Replicating Mtb, % @ 125 ([3]; […]): 98% @ 125; Against carbon starving non-replicating Mtb, % @ 4 [1]: 99% @ 4
c1ccc(-c2nnc(SCc3ncco3)o2)cc1 | 16 | 31 | < 4.59 | < 4.59 | < 4.59 | 
Brc1cccc(-c2nnc(SCc3ccccn3)o2)c1 [drawing 271] |  |  |  |  |  | Against Replicating Mtb, % @ 62 ([3]; […]): 96% @ 62; IC90 [1, 10]: < 8 µM
c1ccc(CCc2nnc(SCc3ccccc3)o2)cc1 | 32 | 250 | < 4.59 | < 4.59 | < 4.59 | 
Cc1cccc(CSc2nnc(-c3ccccc3)o2)c1 | 1 | 125 | < 4.59 | < 4.59 | < 4.59 | 
CC(C)c1nnc(SCc2ccccc2)o1 | 2 | 125 | < 4.59 | < 4.59 | < 4.59 | 
Cc1ccc(-c2nnc(SCc3ccccc3)o2)cc1 | 4 | 125 | < 4.59 | < 4.59 | < 4.59 | 
COCC[S+]([O-])c1nnc(-c2ccc(Cl)cc2)o1 (stereo not drawn) [drawing 265] |  |  |  |  |  | IC90 [1, 10]: 10 µM
COc1ccc(CSc2nnc(-c3ccc(Cl)cc3)o2)nc1 [drawing 275] |  |  |  |  |  | Against Replicating Mtb, % @ 16 (7 d) ([3]; […], at 16 uM, 7 d): 99.5% @ 16 (7 d); Against carbon starving non-replicating Mtb, % @ 4 [1]: 99% @ 4
